Results as given in patent US20230128120A1, “OMEGA MURICHOLIC ACID AS A PREGNANE X RECEPTOR LIGAND FOR TREATING HEPATO-INTESTINAL DISEASES” (University of Washington, priority 2021, published 2023).
Entries after “also recorded” stand apart in the source; their conditions may differ.

Experiments:
Assay type in all cases: cell-based
mouse PXR (mPXR) = molecular target: T1, mouse PXR (mPXR) (Mus musculus, UniProt O54915); experiment: Luciferase reporter assay with mouse PXR (mPXR) plasmid; conditions: in vitro at 1 µM and 10 µM
T1 construct: expressed in transfected cells
T1 sequence (O54915 1-431): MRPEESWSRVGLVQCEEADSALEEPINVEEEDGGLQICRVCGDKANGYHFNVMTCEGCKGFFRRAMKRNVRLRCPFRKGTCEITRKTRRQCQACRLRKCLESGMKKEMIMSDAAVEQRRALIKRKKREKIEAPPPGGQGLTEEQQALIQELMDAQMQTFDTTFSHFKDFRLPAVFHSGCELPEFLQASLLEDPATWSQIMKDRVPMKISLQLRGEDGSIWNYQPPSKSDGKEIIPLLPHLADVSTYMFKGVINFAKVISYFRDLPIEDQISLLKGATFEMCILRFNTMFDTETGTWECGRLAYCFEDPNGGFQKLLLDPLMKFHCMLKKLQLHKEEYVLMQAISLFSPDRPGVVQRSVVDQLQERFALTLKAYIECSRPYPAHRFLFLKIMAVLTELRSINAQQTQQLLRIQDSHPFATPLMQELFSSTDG
Source text: (§1) Data are expressed as average of relative luciferase units among the technical triplicates ± S.E. Asterisks (*) represent statistically significant difference as compared to the vehicle group (one-way ANOVA followed by Duncan’s post hoc test, p < 0.05).
(§2) The prototypical mPXR ligand pregnenolone 16α-carbonitrile (PCN) was used as a positive control (FIG. 4B right panel). […] The prototypical hPXR ligand rifampicin (Rif) was used as a positive control (FIG. 4B left panel).

human PXR = molecular target: T2, human PXR (Homo sapiens, UniProt O75469); experiment: Reporter assay in LS intestinal cells transfected with human PXR + reporter; conditions: 24 h incubation, dose-response, up to the maximum tested concentration, four cell passages
T2 sequence (O75469 1-434): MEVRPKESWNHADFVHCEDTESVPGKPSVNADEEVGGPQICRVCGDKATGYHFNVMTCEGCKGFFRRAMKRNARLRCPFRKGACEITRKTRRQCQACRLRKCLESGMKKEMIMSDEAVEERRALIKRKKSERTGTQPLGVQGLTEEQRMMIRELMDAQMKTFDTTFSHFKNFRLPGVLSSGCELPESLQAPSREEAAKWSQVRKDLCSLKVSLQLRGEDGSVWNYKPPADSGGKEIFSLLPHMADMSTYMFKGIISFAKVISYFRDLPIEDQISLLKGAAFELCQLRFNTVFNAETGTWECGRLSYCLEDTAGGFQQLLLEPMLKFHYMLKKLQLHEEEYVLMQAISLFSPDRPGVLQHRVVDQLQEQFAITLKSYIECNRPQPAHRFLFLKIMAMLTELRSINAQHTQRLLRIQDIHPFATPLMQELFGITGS
Description: Reporter assay was performed using LS intestinal cells transfected with human PXR + reporter. Incubation time was 24 h and a dose-response curve was plotted. Results were confirmed using four different cells passages.
Percent displacement of reporter from human PXR as a function of MDCA concentration was evaluated and the results are shown in FIG. 9.
A reporter assay was performed using LS intestinal cells transfected with human PXR + reporter. Incubation time was 24 h and a dose-response curve was plotted. Results were confirmed using four different cells passages.

human PXR (hPXR) = molecular target: T3, human PXR (hPXR) (Homo sapiens, UniProt O75469); experiment: Luciferase reporter assay with human PXR (hPXR) plasmid; conditions: in vitro at 5 µM
T3 construct: expressed in transfected cells
T3 sequence (O75469 1-434): T2 sequence (O75469 1-434)
Source text: as §1, §2

| Structure (SMILES) | mPXR activation (relative luciferase units vs vehicle) (mouse PXR (mPXR)) | binding affinity towards PXR (percent displacement of reporter from human PXR) (human PXR) | hPXR activation (relative luciferase units vs vehicle) (human PXR (hPXR)) | binding affinity towards PXR (percent displacement of reporter from human PXR) (human PXR; listed as MDCA) |
| --- | --- | --- | --- | --- |
| C[C@H](CCC(=O)O)[C@H]1CC[C@H]2[C@@H]3[C@@H](O)[C@H](O)[C@@H]4C[C@H](O)CC[C@]4(C)[C@H]3CC[C@]12C [omega muricholic acid, ω-muricholic acid] | activated | effective binding | weakly activated |  |
| C[C@H](CCC(=O)O)[C@H]1CC[C@H]2[C@@H]3C[C@H](O)[C@@H]4C[C@H](O)CC[C@]4(C)[C@H]3CC[C@]12C [murideoxycholic acid] |  |  |  | no binding affinity; also recorded: totally inactive |
